Assay [1] can be described thus: Cytotoxicity against human PLC/PRF/5 cells. In kind it is functional. The note with it: read-out: ED50 (the source's name).
The test system of assay [2] is KB. The assay can be described thus: Cytotoxicity against human KB cells. In kind it is functional. The note with it: read-out: ED50 (the source's name).
The test system of assay [3] is Mus musculus. Nature of the assay: Protective activity against CCL4-induced hepatotoxicity in ICR mouse assessed as SGOT/SGPT levels at 0.1 to 3 mg/kg, ip.

Converted amounts (≈) assume the structure as drawn. The source made the active and inactive calls. The calls are words filed in the database; no cut-off is given here.

As to `C[C@H]1CC=C([C@@H](C)[C@H]2[C@H](O)C[C@H]3[C@@H]4CC=C5C[C@@H](O)CC[C@]5(C)[C@H]4CC[C@]23C)NC1` [ETIOLINE], the EC50 in assay [1] was determined as 2.67 µg/mL (≈ 6.45 µM); in assay [2], 11.2 µg/mL (≈ 27.1 µM). Take `C[C@H]1CC[C@H]([C@@H](C)[C@H]2[C@H](O)C[C@H]3[C@@H]4CC=C5C[C@@H](O[C@@H]6O[C@H](CO)[C@@H](O)[C@H](O)[C@H]6O)CC[C@]5(C)[C@H]4CC[C@]23C)NC1` [CAPSICASTRINE]: the EC50 in assay [1] stood at 1.78 µg/mL (≈ 3.08 µM). As to `C[C@@H]1CC[C@]2(O[C@H]3C[C@H]4[C@@H]5CC=C6C[C@@H](O)CC[C@]6(C)[C@H]5CC[C@]4(C)[C@H]3[C@@H]2C)N(C)C1`, the figures for the EC50 in assay [1] and in assay [2] were 8.02 µg/mL (≈ 18.8 µM) and 6 µg/mL (≈ 14 µM), respectively. For the molecule `C[C@H]1CC[C@H]([C@@H](C)[C@H]2[C@H](O)C[C@H]3[C@@H]4CC=C5C[C@@H](O)CC[C@]5(C)[C@H]4CC[C@]23C)NC1` [CAPSIMINE], the EC50 stood at 1.97 µg/mL (≈ 4.74 µM) in assay [1] and 1.35 µg/mL (≈ 3.25 µM) in assay [2]. Besides, the outcome in assay [3] was Active.

Regarding `O=C1C[C@@H](c2ccc(O)cc2)Oc2cc(O)cc(O)c21` [NARINGENIN], the EC50 in assay [1] turned out to be 2.47 µg/mL (≈ 9.07 µM); in assay [2], 2.71 µg/mL (≈ 9.95 µM). Consider `C[C@@H]1CC[C@@]2(NC1)O[C@H]1C[C@H]3[C@@H]4CC=C5C[C@@H](O[C@@H]6O[C@H](CO)[C@@H](O[C@@H]7O[C@@H](C)[C@H](O)[C@@H](O)[C@H]7O)[C@H](O)[C@H]6O)CC[C@]5(C)[C@H]4CC[C@]3(C)[C@H]1[C@@H]2C`, for which the outcome in assay [3] was Active. Same read-out and setting: the entry for `C[C@@H]1CC[C@H]([C@@H](C)C2[C@H](O)C[C@H]3[C@@H]4CC=C5C[C@@H](O[C@@H]6O[C@H](CO)[C@@H](O)[C@H](O)[C@H]6O)CC[C@]5(C)[C@H]4CC[C@]23C)NC1` (some centres undefined) is “Active”. Consider `C[C@@H]1CC[C@@]2(NC1)O[C@H]1C[C@H]3[C@@H]4CC=C5C[C@@H](O[C@@H]6O[C@H](CO)[C@H](O)[C@H](O[C@@H]7O[C@H](CO)[C@@H](O)[C@H](O)[C@H]7O)[C@H]6O[C@@H]6O[C@@H](C)[C@H](O)[C@@H](O)[C@H]6O)CC[C@]5(C)[C@H]4CC[C@]3(C)[C@H]1[C@@H]2C` [SOLASONINE], for which the EC50 turned out to be 7.88 µg/mL (≈ 8.91 µM) in assay [1] and 11.4 µg/mL (≈ 12.9 µM) in assay [2].

The values are drawn from ChEMBL document CHEMBL1147329, “Cytotoxic principles and their derivatives of Formosan Solanum plants” (1993).
